Read-outs that look alike come from different tables or passages of the source. Strand notation (5' to 3'): a small letter for the sugar, then the base; units joined by * are phosphorothioate-linked, units joined directly phosphodiester-linked; [ ] holds rarer units or linkages, { } end groups; capitals alone tell only the bases. [FEt-N] = nucleoside with 2'-OCH2CH2F (FEt) sugar (N: the base); [tcDNA-N] = tricyclo-DNA nucleoside (N: the base); [FEt] = thymidine with 2'-OCH2CH2F (FEt) sugar; e = 2'-O-(2-methoxyethyl) (MOE); m = 2'-O-methyl; r = 2'-OH (RNA); {P} = phosphate; f = 2'-fluoro
Tests used:
human PTEN = test: PTEN expression in HeLa cells, ssRNAs vs siRNAs (Example 62); format: cell-based
Protocol: A series of 5′ and 2′ bis-substituted modified oligomeric compounds were prepared as single strand RNAs (ssRNAs). The antisense (AS) strands listed below were designed to target human PTEN, and each was also assayed as part of a duplex with the same sense strand (ISIS 341401, shown below) for their ability to reduce PTEN expression levels. HeLa cells were treated with the single stranded or double stranded oligomeric compounds created with the antisense compounds shown below using methods described herein. The IC50's were calculated using the linear regression equation generated by plotting the normalized mRNA levels to the log of the concentrations used.

[1] = Phosphate stability in mouse serum (Example 68)
Protocol: Single-stranded oligomeric compounds were tested for stability in mouse serum.

PTEN = PTEN mRNA reduction in HeLa cells, dose response (Example 72); format: cell-based, human; details: percent inhibition of PTEN mRNA, 0.167-50 nM
Protocol: In accordance with the present disclosure, oligomeric compounds were synthesized and tested for their ability to reduce PTEN expression over a range of doses. Human HeLa cells were treated with the following oligomeric compounds. A dose comparison was evaluated with dose concentrations of 0.167, 0.5, 1.5, 5, 15 and 50 nM using methods described herein. Expression levels of PTEN were determined using real-time PCR and normalized to RIBOGREEN™ using methods described herein. The percent inhibition of PTEN mRNA was determined and the resulting dose-response curves were used to determine the IC50. The IC50s are listed below.

[2] = antisense strand duplexed with sense strand ISIS 341401, PTEN mRNA, read-out: EC50 (nM) siRNA
[3] = full compound with intact phosphorous moiety, first table

## Pz-^meUmUfGmUfCmUfCmUfGmGfUmCfCmUfUmAfCmUfUmAeAe (antisense UUGUCUCUGGUCCUUACUUAA; 5'-difluoromethylenephosphonate, 2'-F/2'-OMe alternating, MOE 3' end, first nucleoside modification undefined, further chemistry not given here) [ISIS 462606, modified ssRNA targeting PTEN, 5′-difluoromethylenephosphonate]
Human PTEN; antisense strand duplexed with sense strand ISIS 341401, PTEN mRNA, listed as 462606 (AS), read-out: EC50 (nM) siRNA
  EC50: 0.4 nM

## P-UfUfGfUfCfUfCfUfGfGfUfCfCfUfUfAfCfUfUf (antisense {P}-fUfUfGfUfCfUfCfUfGfGfUfC*fC*fU*fU*fA*fC*fU*fU) [ISIS 386187, modified ssRNA targeting PTEN]
Human PTEN; [2]
  EC50: 0.3 nM
Human PTEN; single stranded antisense compound, PTEN mRNA, read-out: EC50 (nM) ssRNA
  EC50: 15 nM

## 5′-Po-UiUfoGfoUfoCfoUfoCfoUfoGfoGfoUfoCfoCfoUfsUfsAfsCfsUfsUfsAesAe (antisense UUGUCUCUGGUCCUUACUUAA; 5'-phosphate, N-methoxyamino BNA, 2'-F, MOE modifications, chemistry not fully specified) [ISIS 418129]
[1]; [3]
  T1/2 full length: 5.4 h

## P-TUfGfUfCfUfCfUfGfGfUfCfCfUfUfAfCfUfUfAeAe (antisense TUGUCUCUGGUCCUUACUUAA; 5'-phosphate, chemical modifications, chemistry not fully specified) [ISIS 418131, modified ssRNA targeting PTEN]
PTEN
  IC50: 3.4 nM

## P-UeUfGfUfCfUfCfUfGfGfUfCfCfUfUfAfCfUfUfAeAe (antisense UUGUCUCUGGUCCUUACUUAA; sugars from the 5' end e1 f18 e2, 5' {P}, backbone and T or U not given here) [ISIS 418030, modified ssRNA targeting PTEN]
PTEN
  IC50: 8.5 nM

## Pz-^meUhUfGmUfCmUfCmUfGmGfUmCfCmUfUmAfCmUfUmAeAe (antisense UUGUCUCUGGUCCUUACUUAA; 5'-difluoromethylenephosphonate, 2'-F/2'-OMe alternating, MOE 3' end, first nucleoside modification undefined, further chemistry not given here) [ISIS 460646, modified ssRNA targeting PTEN, 5′-difluoromethylenephosphonate]
Human PTEN; [2]
  EC50: 0.8 nM

## P-TefUfGfUfCfUfCfUfGfGfUfCfCfUfUfAfCfUfUfAeAe (antisense TUGUCUCUGGUCCUUACUUAA; sugars from the 5' end [FEt]1 f18 e2, 5' {P}, backbone not given here; further chemistry not fully specified) [ISIS 418032, modified ssRNA targeting PTEN]
PTEN
  IC50: 2.9 nM

## 5′-Ps-UdUfoGfoUfoCfoUfoCfoUfoGfoGfoUfoCfoCfoUfsUfsAfsCfsUfsUf (antisense UUGUCUCUGGUCCUUACUU; 5'-thiophosphate, 2'-F modifications, chemistry not fully specified) [ISIS 430601]
[1]; [3]
  T1/2 full length: 3.7 h

## P-UmUfGmUfCmUfCmUfGmGfUmCfCmUfUmAfCmUfUmAeAe (antisense UUGUCUCUGGUCCUUACUUAA; sugars from the 5' end mfmfmfmfmfmfmfmfmfmee, 5' {P}, backbone not given here) [ISIS 416598, modified ssRNA targeting PTEN]
PTEN; listed as 416598
  IC50: 6.8 nM

## P-TdUfGmUfCmUfCmUfGmGfUmCfCfUfUfAfCfUfUfAeAe (antisense TUGUCUCUGGUCCUUACUUAA; 5'-phosphate, chemical modifications, chemistry not fully specified) [ISIS 435399, modified ssRNA targeting PTEN]
PTEN
  IC50: 2 nM

## Pz-^meUmUfGmUfCmUfCmUfGmGfUmCfCmUfUmAfCmUfUmAeAe (antisense UUGUCUCUGGUCCUUACUUAA; 5'-difluoromethylenephosphonate, 2'-F/2'-OMe alternating, MOE 3' end, first nucleoside modification undefined, further chemistry not given here) [ISIS 462607, modified ssRNA targeting PTEN, 5′-difluoromethylenephosphonate]
Human PTEN; antisense strand duplexed with sense strand ISIS 341401, PTEN mRNA, listed as 462607 (AS), read-out: EC50 (nM) siRNA
  EC50: 1 nM

## 5′-Po-TjUfoGfoUfoCfoUfoCfoUfoGfoGfoUfoCfoCfoUfsUfsAfsCfsUfsUfsAesAe (antisense {P}-[tcDNA-T]fUfGfUfCfUfCfUfGfGfUfCfCfU*fU*fA*fC*fU*fU*eA*eA) [ISIS 418130]
[1]; [3]
  T1/2 full length: 5.3 h

## P-TeUfGfUfCfUfCfUfGfGfUfCfCfUfUfAfCfUfUfAeAe (antisense TUGUCUCUGGUCCUUACUUAA; sugars from the 5' end e1 f18 e2, 5' {P}, backbone not given here) [ISIS 418031, modified ssRNA targeting PTEN]
PTEN
  IC50: 3.9 nM

## P-TefUfGfUfCfUfCfUfGfGfUfCfCfUfUfAfCfUfUfAeAe (antisense {P}-[FEt-T]fUfGfUfCfUfCfUfGfGfUfCfCfU*fU*fA*fC*fU*fU*eA*eA) [ISIS 418033, modified ssRNA targeting PTEN]
PTEN
  IC50: 11 nM

## P-TdUfGfUfCfUfCfUfGfGfUfCfCfUfUfAfCfUfUfAeAe (antisense TUGUCUCUGGUCCUUACUUAA; chemistry not fully specified) [ISIS 435394, modified ssRNA targeting PTEN]
PTEN
  IC50: 18.1 nM

## 5′-Po-ThUfoGfoUfoCfoUfoCfoUfoGfoGfoUfoCfoCfoUfsUfsAfsCfsUfsUfsAesAe (antisense TUGUCUCUGGUCCUUACUUAA; 5'-phosphate, 2'-F, MOE modifications, chemistry not fully specified) [ISIS 440141]
[1]; four compounds tested separately, second table
  T1/2 full length: 0.3 h

## P-UmUfGmUfCmUfCmUfGmGfUmCfCmUfUmAfCmUfUmAeAe (antisense UUGUCUCUGGUCCUUACUUAA; sugars from the 5' end mfmfmfmfmfmfmfmfmfmee, 5' {P}, backbone not given here) [ISIS 414291, modified ssRNA targeting PTEN]
PTEN; listed as 414291
  IC50: 13 nM

## UUGUCUCUGGUCCUUACUU (rUrUrGrUrCrUrCrUrGrGrUrC*rC*rU*rU*rA*rC*rU*rU) [ISIS 359455, unmodified RNA antisense strand targeting PTEN]
Human PTEN; [2]
  EC50: 0.3 nM

Reference: US20130156845A1, “LIPID FORMULATED SINGLE STRANDED RNA” (ALNYLAM PHARMACEUTICALS, INC., priority 2010, published 2013)
